# Test results published in patent publication US4109088A, “2-(Indenyloxymethyl) morpholine derivatives” (priority 1975, dated 1978).
# Where a name gives a salt, the structure may show the parent alone.
# How the values were obtained:
# [1] = tested on: methamphetamine-induced stereotyped behavior; experiment: Methamphetamine-induced stereotyped behavior in rats (Experiment 6); format: in vivo, rats (male Wistar strain, aged 8 weeks)
# Description: Effects of the compounds on methamphetamine-induced stereotyped behavior in rats (male Wistar strain, aged 8 weeks) were examined according to the method of Ueki et al. (Folia Pharmacologica Japonica, 68, 716, 1972).
# The rats were placed in separate plastic cages for 1 hour to be accustomed to the experimental conditions and then the tested compounds were given intraperitoneally followed, after 1 hour, by an intraperitoneal application of methamphetamine (5 mg/kg). The influence of the tested compounds on the agitated behavior of the rats were observed every 30 minutes till 5 hours thereafter.
# [2] = tested on: reserpine-induced hypothermia; experiment: Reserpine-induced hypothermia in mice (Experiment 7); settings: p.o.
# [3] = Pharmacological activity of the isolated isomer salts (general statement); format: in vivo; settings: statement in words
# [4] = tested on: methamphetamine-induced stereotyped behavior; experiment: Potentiation of methamphetamine-induced stereotyped behavior in rats (Experiment 1); format: in vivo, rats (male Wistar strain, aged 6 weeks); settings: for minimal effective dose: Rattus norvegicus, read-out: minimum effective dose causing statistically significant potentiation of the methamphetamine-induced stereotype; for minimum effective dose causing statistically significant potentiation of the methamphetamine-induced stereotype: i.p., 1 hour before methamphetamine 5 mg/Kg i.p., rats observed every 30 minutes until 5 hours
# Description: The rats were placed in separate plastic cages for 1 hour to be accustomed to the experimental conditions, then the tested compounds were given intraperitoneally followed after 1 hour by an intraperitoneal application of methamphetamine (5 mg/Kg).
# [5] = tested on: reserpine induced ptoses and hypothermia; experiment: Competitive effects on reserpine induced ptoses and hypothermia in mice (Experiment 3); format: in vivo, mice (male ICR-JCL strain weighing 25-35 g); settings: 10 mg/Kg, p.c. (so in the source), simultaneously with reserpine 2 mg/Kg i.p.; scored 0.5-6 hours; 10 mice
# Description: The tested compound (10 mg/Kg, p.c.) and reserpine (2 mg/Kg, i.p.) were applied simultaneously to the mice and the degree of ptosis was scored according to the method of Ruben et al. (J. Pharmacol. Exptl. Ther., 120, 125, 1957) at 0.5, 1, 2, 3, 4, 5 and 6 hours after dosages, respectively.
# Rectal temperature of the mice were also measured together with those of non-reserpinized mice. Inhibitory percent of the degree of ptosis and differences between rectal temperatures of reserpinized and non-reserpinized mice due to the tested compound are shown in the following Table. For each experiment 10 mice were used.
# in vivo = settings: mouse, po, male, 25-35 g
# Source text: Acute toxicity (ICR-JCR strain, male, weighing 25-35 g, p.o.)
compound,measurement,setting,value
C1=Cc2c(cccc2OCC2CNCCO2)C1.Cl (stereo not shown) [2-(4-indenyloxymethyl)-morpholine hydrochloride],ED50,"[1]; Rattus norvegicus, ip, 1 hour before methamphetamine 5 mg/kg i.p.",5 mg/kg
C1=Cc2cccc(OCC3CNCCO3)c2C1.Cl (stereo not shown) [2-(7-indenyloxymethyl)morpholine hydrochloride],relative potency vs 2-(4-indenyloxymethyl) morpholine hydrochloride,"[1]; ratio of ED50, i.p.",2.5 times
same,potency compared with 2-(4-indenyloxymethyl) morpholine hydrochloride,[2],more potent than the latter
"C1=Cc2cccc(OCC3CNCCO3)c2C1 (stereo not drawn) [7-isomer acid addition salt, acid addition salt of 2-(7-indenyloxymethyl) morpholine]",pharmacological activity compared with the 4-isomer acid addition salt,[3],more preferable pharmacological activity than the 4-isomer acid addition salt
"CN(C)CCC=C1c2ccccc2CCc2ccccc21 [Amitriptyline, reference compound]",minimal effective dose,[4],10 mg/kg
"CC(C)N1CCOC(COc2cccc3c2CCC3)C1 (stereo not shown) [Compound C, 2-(4-indanyloxymethyl)-4-isopropyl morpholine, reference compound]",minimum effective dose causing statistically significant potentiation of the methamphetamine-induced stereotype,[4],non effective
"CC(C)N1CCOC(COc2cccc3c2CC=C3)C1 (stereo not shown) [Example 1, 4-isopropyl-2-(7-indenyloxymethyl)morpholine]",Inhibition of ptosis (%),[5],14.5%
same,LD50,in vivo,650 mg/kg
same,minimal effective dose,[4],0.3 mg/kg
"CCCCN1CCOC(COc2cccc3c2CC=C3)C1 (stereo not shown) [Example 2, 4-butyl-2-(7-indenyloxymethyl)-morpholine]",minimal effective dose,[4],3 mg/kg
"CCN1CCOC(COc2cccc3c2CC=C3)C1 (stereo not shown) [Example 5, 4-ethyl-2-(7-indenyloxymethyl)morpholine]",LD50,in vivo,700 mg/kg
same,minimal effective dose,[4],0.3 mg/kg
"CCCN1CCOC(COc2cccc3c2CC=C3)C1 (stereo not shown) [Example 6, 2-(7-indenyloxymethyl)-4-propylmorpholine]",minimal effective dose,[4],1 mg/kg
"CC1=CCc2c(OCC3CNCCO3)cccc21 (stereo not shown) [Example 11, 2-(3-methyl-7-indenyloxymethyl)morpholine]",minimal effective dose,[4],0.3 mg/kg
"CC1=CCc2c(OCC3CN(C(C)C)CCO3)cccc21 (stereo not shown) [Example 12A, 4-isopropyl-2-(3-methyl-7-indenyloxymethyl)morpholine]",minimal effective dose,[4],0.03 mg/kg
"CC1=CCc2cccc(OCC3CN(C(C)C)CCO3)c21 (stereo not shown) [Example 12B, 4-isopropyl-2-(3-methyl-4-indenyloxymethyl)morpholine]",minimal effective dose,[4],0.3 mg/kg
"CCOc1ccccc1OCC1CNCCO1 (stereo not shown) [Viloxazine HCl, 2-(2-ethoxyphenoxymethyl) morpholine, reference compound]",Inhibition of ptosis (%),[5],6.0%
same,minimum effective dose causing statistically significant potentiation of the methamphetamine-induced stereotype,[4],non effective
mixture of 2-(4-indenyloxymethyl)morpholine and 2-(7-indenyloxymethyl) morpholine [Example 10],minimum effective dose causing statistically significant potentiation of the methamphetamine-induced stereotype,[4],0.3 mg/kg
